# Entries after “also recorded” stand apart in the source; their conditions may differ.
# Columns and labels:
# [1] = Continuous 24 hour per day infusions in sickle cell disease and beta thalassemia patients; assay type: in vivo, human
# Method: Continuous 24 hour per day infusions of was administered in another study to 10 patients with sickle cell disease and beta thalassemia and produced rises in fetal globin in a lower proportion of patients, 40%. Many of these responses were not sustained.
# Therefore, the same infusion rate given for 24 hours/day results in a lower response rate than does 8-16 hour/day treatment at the same infusion rate. A lower proportions of patients respond hematologically with continuous 24 hours therapy (1/10 patients) than respond to intermittent pulse therapy 8/10 patients. Hematologic responses are higher with pulse therapy (2-5) gram/dl above baseline levels compared to no responses in patients treated with 24 hour therapy.
# Bfu-e = experiment: Erythroid colony (Bfu-e) proliferation with maximal growth factors, normal subject; assay type: cell-based, human; settings: 0.1 mM
# Source text: Erythroid cells were obtained, as described in Example 1, from a normal subject and cultured on semi-solid medium in the presence of a maximal amount of erythroid growth factors including IL-6, GM-CSF, SCF and EPO. Erythroid proliferation in the presence of these factors is expected to be maximal and, therefore, any increases observed would be significant.
# Half-life = settings: in vivo
# [2] = Total hemoglobin in phlebotomized anemic baboons, continuous versus pulse therapy; assay type: in vivo, baboon; settings: continuous, 700 mg/kg/day for 5 days; phlebotomized baboon; from 6.7
# Method: Therapy was administered to anemic baboons who were being phlebotomized 5-10 ml/kg of blood per day on a continuous basis. EPO was administered daily at 300 U/kg/dose. Arginine butyrate was administered daily at 700 mg/kg/day for 5 days and phenoxyacetic acid at 500 mg/kg/day daily over 8 hours and at 1000 mg/kg/day for 24 hours/day daily for five days each. […] With continuous arginine butyrate treatment, hemoglobin remained essentially stable at 6.7 to 6.9 gram/dl. With continuous treatment with phenoxyacetic acid, hemoglobin levels remained stable at 7.0 gram/dl to 6.9 gram/dl during 8 hour therapy and declined from 6.8 to 4.5 when the drug was given for 24 hours per day for 5 days.
# [3] = Weekly versus pulse butyrate therapy in sickle cell and beta thalassemia patients; assay type: in vivo, human; parameters: F-retics On / F-cells On: unit not given here
# Method: To determine if arginine butyrate can be used for therapeutic benefit, two low-dose regimens of butyrate were studied. Treatment were given intermittently either weekly, or in a pulse fashion, at 2-3 week intervals. […]
# Patients were treated by pulse therapy for 4-18 months with arginine butyrate. […] It is preferred to avoid prolonged treatment with high doses of butyrate, which cause cellular growth arrest in G1, and can enhance the accelerated apoptosis of beta thalassemia. Partial tolerance observed with long-term weekly therapy appears related to erythroid cell growth arrest and a decline in EPO levels as Hgb and Hct rise and depletion of available iron stores. Treatment with additional doses of iron supplements can overcome some of the anti-proliferative activities of butyrate in vitro. Time required on therapy has been only 25%-35% of the treatment days per month necessary for effective transfusion and iron chelation. This has improved the quality of life of some patients.
# To determine if these potentially opposing actions can be balanced for therapeutic effect, two intermittent schedules of butyrate were compared in 21 treatment courses in 14 patients ages 3 to 55 years, with sickle cell disease or β thalassemia. An optimal dose was identified on an individual patient regimen and continued on a weekly basis in eleven patients. Providing 7 to 14 days without any drug exposure to facilitate proliferation of treated cells, an alternate week regimen or pulse therapy, was administered to twelve patients (see Tables V, VI and VI).
# A series of ten patients with sickle cell anemia and β-thalassemia were treated with continuous therapy with arginine butyrate. In 3 out of 4, transfusion requirement was diminished. […] The mean peak in total HgB which was detectable in the ten patients over their baseline was 1.6 gm/dl.
# Patients were next administered a pulse therapy regimen. Each session comprised eight to twelve hours of nightly infusions. […] Total increases in Hgb were sustained as high as 3.0 g/dl above baseline levels with a mean increase of 2.1 g/dl in 8 out of 12 patients (p<0.05, paired t-test, chi square).
# [4] = pulse therapy, 4/6 severe thalassemia patients
# [5] = weekly therapy, patient Hb SS, 24 weeks
# [6] = weekly therapy, patient HbSS, 4 weeks
# [7] = weekly therapy, patient frameshift 5, 5 weeks
# [8] = weekly therapy, patient β-39,-39, 8 weeks
# [9] = weekly therapy, patient βIVS I, 1-6, 40 weeks
substance,measurement,setting,value
arginine butyrate,proportion of patients with rises in fetal globin,"[1]; continuous 24 hour per day infusions, 10 patients",40%
same,patients responding hematologically,[1]; continuous 24 hours therapy,1/10
same,"Bfu-e colonies, % of control",Bfu-e,16 % of control
same,half-life,Half-life,15 min
same,total hemoglobin after treatment,[2],6.9 gram/dl
same,fetal hemoglobin levels,"[3]; 4 days, infusions about 8 hours per day, followed by 7 days of no treatment",rise substantially
same,patients with diminished transfusion requirement,[3]; continuous therapy,3 out of 4
same,mean peak in total HgB over baseline,"[3]; continuous therapy, ten patients",1.6 gm/dl
same,patients responding hematologically,[3]; intermittent pulse therapy,8/10
same,transfusion-dependency,"[3]; pulse regimen, thalassemia major",eliminated previous transfusion-dependency; also recorded: Transfusion-dependency was eliminated
same,hematologic responses above baseline levels,[3]; pulse therapy,2-5 gram/dl
same,patients with fetal globin genes reactivated to a hematologically compensating degree,[3]; pulse therapy for 4-18 months,8 out of 12
same,"total increases in Hgb above baseline, sustained",[3]; pulse therapy regimen,≤ 3.0 g/dL
same,mean increase in Hgb above baseline,"[3]; pulse therapy regimen, 8 out of 12 patients",2.1 g/dL
same,increase in total Hb levels,[3]; [4],2-3 grams/dl
same,total Hb level reached,[3]; [4],> 9.0 gm/dl
same,Hb F reached,"[3]; pulse therapy, patient",29%
same,Increase in Total Hgb,"[3]; pulse therapy, patient HbE/?, 15 weeks",1.7 g/dL
same,Non-∀/∀* On (non-α: α globin chain synthesis ratios),"[3]; pulse therapy, patient HbE/?, 15 weeks, Base 0.17",0.25
same,F-cells On,"[3]; pulse therapy, patient HbE/?, 15 weeks, Base 79",84
same,Percent HbF On,"[3]; pulse therapy, patient HbSS, 7 weeks, Base 0.5",1.5%
same,F-retics On,"[3]; pulse therapy, patient HbSS, 7 weeks, Base 8",9.3
same,F-cells On,"[3]; pulse therapy, patient HbSS, 7 weeks, Base 11",8
same,Percent HbF On,"[3]; pulse therapy, patient HbSS, 9 weeks, Base 0.5",1.0%
same,F-retics On,"[3]; pulse therapy, patient HbSS, 9 weeks, Base 0.7",6.7
same,F-cells On,"[3]; pulse therapy, patient HbSS, 9 weeks, Base 15",0.5
same,Increase Total Hgb,"[3]; pulse therapy, patient HbSS, 11 weeks",+1.0 g/dl
same,Percent HbF On,"[3]; pulse therapy, patient HbSS, 11 weeks, Base 3",24%
same,F-retics On,"[3]; pulse therapy, patient HbSS, 11 weeks, Base 18",25
same,F-cells On,"[3]; pulse therapy, patient HbSS, 11 weeks, Base 28",58
same,Increase Total Hgb,"[3]; pulse therapy, patient HbSS, 15 weeks",+2.0 g/dl
same,Percent HbF On,"[3]; pulse therapy, patient HbSS, 15 weeks, Base 6.9",22%
same,F-retics On,"[3]; pulse therapy, patient HbSS, 15 weeks, Base 12.6",24
same,F-cells On,"[3]; pulse therapy, patient HbSS, 15 weeks, Base 23",59
same,Increase Total Hgb,"[3]; pulse therapy, patient HbSS, 18 weeks",+2.0 g/dl
same,Percent HbF On,"[3]; pulse therapy, patient HbSS, 18 weeks, Base 8",35%
same,F-retics On,"[3]; pulse therapy, patient HbSS, 18 weeks, Base 35",46
same,F-cells On,"[3]; pulse therapy, patient HbSS, 18 weeks, Base 50",65
same,Increase Total Hgb,"[3]; pulse therapy, patient HbSS, 28 weeks",+1.0 g/dl
same,Percent HbF On,"[3]; pulse therapy, patient HbSS, 28 weeks, Base 6",29%
same,F-retics On,"[3]; pulse therapy, patient HbSS, 28 weeks, Base 18",36
same,F-cells On,"[3]; pulse therapy, patient HbSS, 28 weeks, Base 42",56
same,Non-∀/∀* On (non-α: α globin chain synthesis ratios),"[3]; pulse therapy, patient frameshift-5, 24 weeks, Base 0.5",0.75
same,F-cells On,"[3]; pulse therapy, patient frameshift-5, 24 weeks, Base 100",100
same,Increase in Total Hgb,"[3]; pulse therapy, patient β-39-87, 68 weeks",3.6 g/dL
same,Non-∀/∀* On (non-α: α globin chain synthesis ratios),"[3]; pulse therapy, patient β-39-87, 68 weeks, Base 0.6",1.1
same,F-cells On,"[3]; pulse therapy, patient β-39-87, 68 weeks, Base 29",100
same,Increase in Total Hgb,"[3]; pulse therapy, patient β-39, 7 weeks",3.0 g/dL
same,Non-∀/∀* On (non-α: α globin chain synthesis ratios),"[3]; pulse therapy, patient β-39, 7 weeks, Base 0.4",0.9
same,F-cells On,"[3]; pulse therapy, patient β-39, 7 weeks, Base 100",100
same,Increase in Total Hgb,"[3]; pulse therapy, patient βIVS I-1, 4 weeks",2.1 g/dL
same,Non-∀/∀* On (non-α: α globin chain synthesis ratios),"[3]; pulse therapy, patient βIVS I-1, 4 weeks, Base 0.5",0.9
same,F-cells On,"[3]; pulse therapy, patient βIVS I-1, 4 weeks, Base 100",100
same,Non-∀/∀* On (non-α: α globin chain synthesis ratios),"[3]; pulse therapy, patient βIVS II, 33 weeks, Base 0.5",0.7
same,F-cells On,"[3]; pulse therapy, patient βIVS II, 33 weeks, Base 10",16
same,patients with desired hematologic responses,"[3]; pulse therapy, sickle cell and beta thalassemia patients",8 of 12
same,adverse side effects,[3]; up to 17 months of home therapy and 350 weeks of patient treatment,No significant adverse side effects
same,Hb F responses,[3]; weekly therapy,4-10%
same,patients with biochemical (Hb F) responses,[3]; weekly therapy,8/10
same,patients with biochemical increases in fetal globin expression,[3]; weekly therapy,8/11
same,"rises in total hemoglobin, mean",[3]; weekly therapy,1.6 gm/dl
same,increases in total Hb above baseline levels,"[3]; weekly therapy, in 6/10",1-4 gram/dl
same,Comments,[3]; [5],response declined
same,Increase in Total Hgb,[3]; [5],+2.0 gm/dl
same,F-retics On,"[3]; weekly therapy, patient Hb SS, 24 weeks, Base 12.7",35.3
same,Comments,"[3]; weekly therapy, patient HbE/?, 9 weeks",transfusions cont.
same,F-retics On,"[3]; weekly therapy, patient HbE/?, 9 weeks, Base 42",52.7
same,Comments,"[3]; weekly therapy, patient HbS, β-39, 6 weeks",transfusions cont.
same,F-retics On,"[3]; weekly therapy, patient HbS, β-39, 6 weeks, Base 4",20
same,Comments,[3]; [6],response declined
same,Increase in Total Hgb,[3]; [6],+1.0 gm/dl
same,F-retics On,"[3]; weekly therapy, patient HbSS, 4 weeks, Base 14",30.7
same,Comments,[3]; [7],response declined
same,Increase in Total Hgb,[3]; [7],+1.0 gm/dl
same,F-retics On,"[3]; weekly therapy, patient frameshift 5, 5 weeks, Base 0.5",1
same,Comments,"[3]; weekly therapy, patient β(-39-39), 8 weeks","AIHA, trans. cont."
same,F-retics On,"[3]; weekly therapy, patient β(-39-39), 8 weeks, Base 60",77
same,Comments,[3]; [8],plateaued
same,Increase in Total Hgb,[3]; [8],1.5 gm/dl
same,F-retics On,"[3]; weekly therapy, patient β-39,-39, 8 weeks, Base 76",68
same,Increase in Total Hgb,"[3]; weekly therapy, patient β-39-87, 16 weeks",+2.3 gm/dl
same,F-retics On,"[3]; weekly therapy, patient β-39-87, 16 weeks, Base 64.7",67.3
same,Comments,[3]; [9],response declined
same,Increase in Total Hgb,[3]; [9],+4.3 gm/dl
same,F-retics On,"[3]; weekly therapy, patient βIVS I, 1-6, 40 weeks, Base 56",75
same,Increase in Total Hgb,"[3]; weekly therapy, patient βIVS II-745, 7 weeks",3 gm/dl
same,F-retics On,"[3]; weekly therapy, patient βIVS II-745, 7 weeks, Base 4",16
same,"rises in total hemoglobin, mean","[3]; weekly therapy, the 6 responsive patient (6/9 treated)",2.4 gm/dl
